Experimental data published in ChEMBL document CHEMBL2169851, “Imidazopyridazinones as novel PDE7 inhibitors: SAR and in vivo studies in Parkinson's disease model” (Bioorg Med Chem Lett, 2012).
Active and inactive are the calls of the source. The calls are words filed in the database; no cut-off is given here.

Assays:
[1] = target: T1, High affinity 3',5'-cyclic-AMP phosphodiesterase 7A (Homo sapiens, UniProt Q13946); assay: Inhibition of cloned human recombinant PDE7A assessed as [3H]cAMP hydrolysis by radiometric assay
[2] = test system: Mus musculus; assay: Neurotoxicity in C57BL/6 mouse assessed as haloperidol-induced deffect in motor coordination at 3 mg/kg, ip administered 15 mins prior to haloperidol challenge measured at 0.5 to 1 hr post haloperidol challenge; type: toxicity, organism-based; parameters: dose 3 mg/kg, route intraperitoneal; conditions: in vivo
[3] = test system: Mus musculus; assay: Neurotoxicity in C57BL/6 mouse assessed as potentiation of haloperidol-induced catalepsy at 1 to 10 mg/kg, ip administered 15 mins prior to haloperidol challenge measured at 0.5 to 1 hr post haloperidol challenge; type: toxicity, organism-based; parameters: route intraperitoneal; conditions: in vivo
[4] = test system: Mus musculus; assay: Neurotoxicity in C57BL/6 mouse assessed as induction of catalepsy at 1 to 10 mg/kg, ip measured at 0.5 to 1 hr; type: toxicity, organism-based; parameters: route intraperitoneal; conditions: in vivo
[5] = test system: Mus musculus; assay: Neurotoxicity in C57BL/6 mouse assessed as induction of catalepsy at 30 mg/kg, ip measured at 0.5 to 1 hr; type: toxicity, organism-based; parameters: dose 30 mg/kg, route intraperitoneal; conditions: in vivo
[6] = test system: Mus musculus; assay: Antiparkinsonian activity in C57BL/6 mouse assessed as decrease in MPTP-induced rearing behavior impairment at 30 mg/kg, ip administered 15 mins on day 7 post MPTP challenge; type: functional, organism-based; parameters: dose 30 mg/kg
[7] = target: T2, High affinity 3',5'-cyclic-AMP phosphodiesterase 7A (Mus musculus, UniProt P70453); assay: Inhibition of mouse PDE7A assessed as [3H]cAMP hydrolysis after 5 to 15 mins by scintillation counter
T2 sequence (P70453 whole entry): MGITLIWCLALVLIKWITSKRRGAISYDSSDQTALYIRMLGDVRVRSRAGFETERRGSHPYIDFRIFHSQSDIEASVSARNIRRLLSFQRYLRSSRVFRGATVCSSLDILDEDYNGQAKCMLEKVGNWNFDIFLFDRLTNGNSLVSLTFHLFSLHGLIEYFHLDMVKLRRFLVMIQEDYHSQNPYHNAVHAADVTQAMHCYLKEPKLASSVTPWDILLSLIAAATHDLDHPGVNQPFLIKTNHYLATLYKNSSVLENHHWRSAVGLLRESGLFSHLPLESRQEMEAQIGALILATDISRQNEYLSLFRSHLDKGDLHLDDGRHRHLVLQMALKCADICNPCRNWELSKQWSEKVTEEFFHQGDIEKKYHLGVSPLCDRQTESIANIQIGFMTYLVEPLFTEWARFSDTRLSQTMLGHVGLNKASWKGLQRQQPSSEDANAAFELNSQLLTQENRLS

[8] = test system: Brain; assay: Free drug level in C57 mouse brain homogenate at 10 mg/kg, ip; type: ADME, organism-based; parameters: dose 10 mg/kg, route intraperitoneal; conditions: in vivo
[9] = test system: Brain; assay: Free drug level in C57 mouse brain homogenate at 100 mg/kg, ip; type: ADME, organism-based; parameters: dose 100 mg/kg, route intraperitoneal; conditions: in vivo
[10] = test system: Brain; assay: Free drug level in C57 mouse brain homogenate at 30 mg/kg, ip; type: ADME, organism-based; parameters: dose 30 mg/kg, route intraperitoneal; conditions: in vivo
[11] = Ratio of drug level in brain to plasma in C57 mouse at 30 mg/kg, ip after 30 mins; type: ADME, organism-based; parameters: dose 30 mg/kg, route intraperitoneal; conditions: read-out: BPR
[12] = Ratio of drug level in brain to plasma in C57 mouse at 100 mg/kg, ip after 30 mins; type: ADME, organism-based; parameters: dose 100 mg/kg, route intraperitoneal; conditions: read-out: BPR
[13] = Drug uptake in C57 mouse brain at 100 mg/kg, ip after 30 mins; type: ADME, organism-based; parameters: dose 100 mg/kg, route intraperitoneal; conditions: read-out: Drug uptake
[14] = Plasma concentration in C57 mouse at 100 mg/kg, ip after 30 mins; type: ADME, organism-based; parameters: dose 100 mg/kg, route intraperitoneal
[15] = Drug uptake in C57 mouse brain at 30 mg/kg, ip after 30 mins; type: ADME, organism-based; parameters: dose 30 mg/kg, route intraperitoneal; conditions: read-out: Drug uptake
[16] = Plasma concentration in C57 mouse at 30 mg/kg, ip after 30 mins; type: ADME, organism-based; parameters: dose 30 mg/kg, route intraperitoneal
[17] = Tmax in C57 mouse at 30 mg/kg, ip; type: ADME, organism-based; parameters: dose 30 mg/kg, route intraperitoneal; conditions: in vivo
[18] = Tmax in C57 mouse at 100 mg/kg, ip; type: ADME, organism-based; parameters: dose 100 mg/kg, route intraperitoneal; conditions: in vivo
[19] = AUC in C57 mouse at 30 mg/kg, ip; type: ADME, organism-based; parameters: dose 30 mg/kg, route intraperitoneal; conditions: plasma
[20] = AUC in C57 mouse at 100 mg/kg, ip; type: ADME, organism-based; parameters: dose 100 mg/kg, route intraperitoneal; conditions: plasma
[21] = Cmax in C57 mouse at 100 mg/kg, ip; type: ADME, organism-based; parameters: dose 100 mg/kg, route intraperitoneal; conditions: in vivo
[22] = Cmax in C57 mouse at 30 mg/kg, ip; type: ADME, organism-based; parameters: dose 30 mg/kg, route intraperitoneal; conditions: in vivo
[23] = test system: Brain; assay: Free drug level in C57 mouse brain homogenate at 1 uM by high throughput dialysis method; type: ADME, tissue-based; conditions: in vivo
[24] = Tmax in C57 mouse at 10 mg/kg, ip; type: ADME, organism-based; parameters: dose 10 mg/kg, route intraperitoneal; conditions: in vivo
[25] = AUC in C57 mouse at 10 mg/kg, ip; type: ADME, organism-based; parameters: dose 10 mg/kg, route intraperitoneal; conditions: plasma
[26] = Ratio of drug level in brain to plasma in C57 mouse at 10 mg/kg, ip after 30 mins; type: ADME, organism-based; parameters: dose 10 mg/kg, route intraperitoneal; conditions: read-out: BPR
[27] = Cmax in C57 mouse at 10 mg/kg, ip; type: ADME, organism-based; parameters: dose 10 mg/kg, route intraperitoneal; conditions: in vivo
[28] = Plasma concentration in C57 mouse at 10 mg/kg, ip after 30 mins; type: ADME, organism-based; parameters: dose 10 mg/kg, route intraperitoneal
[29] = Drug uptake in C57 mouse brain at 10 mg/kg, ip after 30 mins; type: ADME, organism-based; parameters: dose 10 mg/kg, route intraperitoneal; conditions: read-out: Drug uptake
[30] = Metabolic stability in mouse liver microsomes assessed as compound remaining after 60 mins; type: ADME, Microsome; conditions: read-out: Stability
[31] = Metabolic stability in rat liver microsomes assessed as compound remaining after 60 mins; type: ADME, Microsome; conditions: read-out: Stability
[32] = species on record: Homo sapiens; assay: Selectivity ratio of IC50 for cloned human recombinant PDE4D to IC50 for cloned human recombinant PDE7B
[33] = Metabolic stability in human liver microsomes assessed as compound remaining after 60 mins; type: ADME, Microsome; conditions: read-out: Stability
[34] = species on record: Homo sapiens; assay: Selectivity ratio of IC50 for cloned human recombinant PDE4D to IC50 for cloned human recombinant PDE7A
[35] = target: T3, 3',5'-cyclic-AMP phosphodiesterase 4D (Homo sapiens, UniProt Q08499); assay: Inhibition of cloned human recombinant PDE4D assessed as [3H]cAMP hydrolysis by radiometric assay
[36] = target: Dual 3',5'-cyclic-AMP and -GMP phosphodiesterase 11A (Homo sapiens) (UniProt Q9HCR9); assay: Inhibition of cloned human recombinant PDE11A assessed as [3H]cAMP hydrolysis at 10 uM by radiometric assay
[37] = target: cAMP and cAMP-inhibited cGMP 3',5'-cyclic phosphodiesterase 10A (Homo sapiens) (UniProt Q9Y233); assay: Inhibition of cloned human recombinant PDE10A assessed as [3H]cAMP hydrolysis at 10 uM by radiometric assay
[38] = target: High affinity cGMP-specific 3',5'-cyclic phosphodiesterase 9A (Homo sapiens) (UniProt O76083); assay: Inhibition of cloned human recombinant PDE9A2 assessed as [3H]cAMP hydrolysis at 10 uM by radiometric assay
[39] = target: High affinity cAMP-specific and IBMX-insensitive 3',5'-cyclic phosphodiesterase 8A (Homo sapiens) (UniProt O60658); assay: Inhibition of cloned human recombinant PDE8A1 assessed as [3H]cAMP hydrolysis at 10 uM by radiometric assay
[40] = target: cGMP-specific 3',5'-cyclic phosphodiesterase (Homo sapiens) (UniProt O76074); assay: Inhibition of cloned human recombinant PDE5A assessed as [3H]cAMP hydrolysis at 10 uM by radiometric assay
[41] = target: T3, 3',5'-cyclic-AMP phosphodiesterase 4D; assay: Inhibition of cloned human recombinant PDE4D assessed as [3H]cAMP hydrolysis at 10 uM by radiometric assay
[42] = target: cGMP-inhibited 3',5'-cyclic phosphodiesterase 3A (Homo sapiens) (UniProt Q14432); assay: Inhibition of cloned human recombinant PDE3A assessed as [3H]cAMP hydrolysis at 10 uM by radiometric assay
[43] = target: cGMP-dependent 3',5'-cyclic phosphodiesterase (Homo sapiens) (UniProt O00408); assay: Inhibition of cloned human recombinant PDE2A assessed as [3H]cAMP hydrolysis at 10 uM by radiometric assay
[44] = target: Dual specificity calcium/calmodulin-dependent 3',5'-cyclic nucleotide phosphodiesterase 1A (Homo sapiens) (UniProt P54750); assay: Inhibition of cloned human recombinant PDE1A assessed as [3H]cAMP hydrolysis at 10 uM by radiometric assay
[45] = target: 3',5'-cyclic-AMP phosphodiesterase 7B (Homo sapiens, UniProt Q9NP56); assay: Inhibition of cloned human recombinant PDE7B assessed as [3H]cAMP hydrolysis by radiometric assay
[46] = target: T1, High affinity 3',5'-cyclic-AMP phosphodiesterase 7A; assay: Inhibition of cloned human recombinant PDE7A assessed as [3H]cAMP hydrolysis at 1 uM by radiometric assay

T1 sequence (Q13946 whole entry): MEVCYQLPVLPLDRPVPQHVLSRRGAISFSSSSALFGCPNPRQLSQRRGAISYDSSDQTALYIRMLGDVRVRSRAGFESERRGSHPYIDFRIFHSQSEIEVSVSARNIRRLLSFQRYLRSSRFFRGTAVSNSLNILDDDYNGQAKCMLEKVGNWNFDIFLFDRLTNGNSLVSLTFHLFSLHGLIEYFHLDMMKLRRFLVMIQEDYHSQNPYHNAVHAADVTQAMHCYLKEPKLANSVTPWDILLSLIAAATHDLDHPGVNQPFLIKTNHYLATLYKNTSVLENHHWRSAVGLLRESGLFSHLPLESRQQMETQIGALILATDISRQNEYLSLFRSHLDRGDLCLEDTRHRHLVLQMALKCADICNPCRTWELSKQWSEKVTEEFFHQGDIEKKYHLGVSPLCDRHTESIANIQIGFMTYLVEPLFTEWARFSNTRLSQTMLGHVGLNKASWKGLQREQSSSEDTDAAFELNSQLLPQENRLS
T3 sequence (Q08499 whole entry): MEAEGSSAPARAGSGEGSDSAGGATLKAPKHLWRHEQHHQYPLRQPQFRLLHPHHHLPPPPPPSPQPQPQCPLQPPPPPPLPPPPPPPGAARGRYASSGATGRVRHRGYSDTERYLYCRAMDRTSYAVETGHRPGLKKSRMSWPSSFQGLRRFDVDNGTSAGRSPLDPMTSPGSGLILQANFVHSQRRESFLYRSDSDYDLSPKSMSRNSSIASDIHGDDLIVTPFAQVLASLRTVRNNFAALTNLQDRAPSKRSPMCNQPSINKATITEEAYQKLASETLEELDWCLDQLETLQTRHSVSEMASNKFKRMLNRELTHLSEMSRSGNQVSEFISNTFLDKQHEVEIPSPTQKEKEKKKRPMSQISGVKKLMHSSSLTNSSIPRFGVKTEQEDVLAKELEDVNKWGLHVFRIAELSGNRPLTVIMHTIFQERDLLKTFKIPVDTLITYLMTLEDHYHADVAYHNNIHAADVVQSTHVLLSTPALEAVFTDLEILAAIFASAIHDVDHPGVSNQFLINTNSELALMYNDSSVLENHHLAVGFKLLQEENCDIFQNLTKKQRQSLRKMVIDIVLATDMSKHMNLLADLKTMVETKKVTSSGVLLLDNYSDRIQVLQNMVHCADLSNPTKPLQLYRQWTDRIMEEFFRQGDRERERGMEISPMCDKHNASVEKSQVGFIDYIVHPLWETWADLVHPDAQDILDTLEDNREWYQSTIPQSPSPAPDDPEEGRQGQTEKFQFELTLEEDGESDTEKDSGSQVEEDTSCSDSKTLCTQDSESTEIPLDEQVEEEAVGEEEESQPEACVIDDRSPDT
Sequence of cGMP-dependent 3',5'-cyclic phosphodiesterase (Homo sapiens) (O00408 whole entry): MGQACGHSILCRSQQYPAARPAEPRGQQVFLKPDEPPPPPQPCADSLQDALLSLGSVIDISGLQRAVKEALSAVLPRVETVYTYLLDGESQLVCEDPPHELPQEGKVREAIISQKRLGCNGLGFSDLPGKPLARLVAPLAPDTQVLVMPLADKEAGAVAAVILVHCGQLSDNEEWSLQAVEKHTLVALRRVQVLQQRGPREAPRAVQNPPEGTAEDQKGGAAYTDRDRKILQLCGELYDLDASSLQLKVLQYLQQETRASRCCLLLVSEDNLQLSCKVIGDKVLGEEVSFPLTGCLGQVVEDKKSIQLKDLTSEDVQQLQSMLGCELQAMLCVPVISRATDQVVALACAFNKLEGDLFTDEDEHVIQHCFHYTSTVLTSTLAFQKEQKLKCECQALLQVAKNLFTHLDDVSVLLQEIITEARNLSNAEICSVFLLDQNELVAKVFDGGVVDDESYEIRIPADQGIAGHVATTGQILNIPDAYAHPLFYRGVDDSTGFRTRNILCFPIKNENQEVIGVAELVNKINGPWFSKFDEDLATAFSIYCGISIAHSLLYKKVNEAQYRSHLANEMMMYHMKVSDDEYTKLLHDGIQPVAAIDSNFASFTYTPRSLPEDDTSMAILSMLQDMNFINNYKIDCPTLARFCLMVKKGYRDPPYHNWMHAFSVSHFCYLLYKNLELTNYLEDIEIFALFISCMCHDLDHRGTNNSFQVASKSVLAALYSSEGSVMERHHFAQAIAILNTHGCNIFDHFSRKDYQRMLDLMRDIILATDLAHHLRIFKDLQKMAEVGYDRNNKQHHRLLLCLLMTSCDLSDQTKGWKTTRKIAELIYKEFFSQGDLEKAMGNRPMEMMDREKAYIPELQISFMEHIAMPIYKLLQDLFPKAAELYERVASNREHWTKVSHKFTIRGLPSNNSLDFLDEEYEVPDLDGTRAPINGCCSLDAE
Sequence of Dual specificity calcium/calmodulin-dependent 3',5'-cyclic nucleotide phosphodiesterase 1A (Homo sapiens) (P54750 whole entry): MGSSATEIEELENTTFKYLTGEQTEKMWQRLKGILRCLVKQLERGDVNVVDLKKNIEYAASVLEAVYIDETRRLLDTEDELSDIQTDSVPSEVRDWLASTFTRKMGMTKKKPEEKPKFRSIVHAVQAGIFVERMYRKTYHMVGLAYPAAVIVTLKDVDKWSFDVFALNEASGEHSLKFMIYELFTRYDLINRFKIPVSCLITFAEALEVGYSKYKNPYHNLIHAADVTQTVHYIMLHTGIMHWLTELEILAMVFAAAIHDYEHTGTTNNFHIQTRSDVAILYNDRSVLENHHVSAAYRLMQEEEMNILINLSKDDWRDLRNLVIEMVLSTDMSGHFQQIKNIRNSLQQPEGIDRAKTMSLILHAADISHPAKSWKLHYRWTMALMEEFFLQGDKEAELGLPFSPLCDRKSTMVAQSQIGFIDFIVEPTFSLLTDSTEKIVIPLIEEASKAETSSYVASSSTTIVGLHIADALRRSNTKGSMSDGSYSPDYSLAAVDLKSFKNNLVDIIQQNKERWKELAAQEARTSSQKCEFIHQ
Sequence of Dual 3',5'-cyclic-AMP and -GMP phosphodiesterase 11A (Homo sapiens) (Q9HCR9 whole entry, looked up): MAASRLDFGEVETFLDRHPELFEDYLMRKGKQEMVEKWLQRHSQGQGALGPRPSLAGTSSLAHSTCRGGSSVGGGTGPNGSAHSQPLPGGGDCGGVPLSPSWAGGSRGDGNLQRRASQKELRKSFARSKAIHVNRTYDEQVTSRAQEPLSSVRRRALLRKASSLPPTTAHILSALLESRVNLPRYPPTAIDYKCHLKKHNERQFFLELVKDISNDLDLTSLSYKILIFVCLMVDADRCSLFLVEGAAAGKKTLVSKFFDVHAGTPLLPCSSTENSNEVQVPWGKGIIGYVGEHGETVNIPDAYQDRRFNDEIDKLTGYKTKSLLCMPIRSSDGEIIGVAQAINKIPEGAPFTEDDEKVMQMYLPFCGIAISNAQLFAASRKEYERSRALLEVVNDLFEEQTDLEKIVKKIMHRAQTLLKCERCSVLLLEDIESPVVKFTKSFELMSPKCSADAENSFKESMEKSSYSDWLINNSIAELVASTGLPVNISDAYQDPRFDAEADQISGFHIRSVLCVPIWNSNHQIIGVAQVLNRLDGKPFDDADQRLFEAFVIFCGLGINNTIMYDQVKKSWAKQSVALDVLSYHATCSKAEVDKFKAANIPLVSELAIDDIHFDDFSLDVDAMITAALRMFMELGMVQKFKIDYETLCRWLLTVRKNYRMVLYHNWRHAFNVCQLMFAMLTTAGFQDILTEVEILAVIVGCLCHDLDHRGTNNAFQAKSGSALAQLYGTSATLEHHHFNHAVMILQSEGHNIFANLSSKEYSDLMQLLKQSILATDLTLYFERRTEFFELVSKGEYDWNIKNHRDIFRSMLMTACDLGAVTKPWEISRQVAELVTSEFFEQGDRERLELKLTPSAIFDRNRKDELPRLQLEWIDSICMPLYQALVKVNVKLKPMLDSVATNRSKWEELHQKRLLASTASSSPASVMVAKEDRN
Sequence of 3',5'-cyclic-AMP phosphodiesterase 7B (Q9NP56 whole entry): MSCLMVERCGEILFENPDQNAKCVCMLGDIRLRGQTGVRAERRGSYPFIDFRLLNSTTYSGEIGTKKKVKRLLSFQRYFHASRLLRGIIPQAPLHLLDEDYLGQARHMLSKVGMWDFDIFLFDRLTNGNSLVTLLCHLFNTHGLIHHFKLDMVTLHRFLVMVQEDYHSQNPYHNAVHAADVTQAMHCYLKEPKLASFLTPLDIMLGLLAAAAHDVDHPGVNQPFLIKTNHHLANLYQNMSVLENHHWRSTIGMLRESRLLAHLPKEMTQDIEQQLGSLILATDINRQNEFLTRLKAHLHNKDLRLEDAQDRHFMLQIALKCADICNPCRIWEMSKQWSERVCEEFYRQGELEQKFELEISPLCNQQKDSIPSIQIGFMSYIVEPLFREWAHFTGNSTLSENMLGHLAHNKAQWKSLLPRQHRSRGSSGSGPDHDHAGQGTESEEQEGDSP
Sequence of High affinity cGMP-specific 3',5'-cyclic phosphodiesterase 9A (Homo sapiens) (O76083 whole entry): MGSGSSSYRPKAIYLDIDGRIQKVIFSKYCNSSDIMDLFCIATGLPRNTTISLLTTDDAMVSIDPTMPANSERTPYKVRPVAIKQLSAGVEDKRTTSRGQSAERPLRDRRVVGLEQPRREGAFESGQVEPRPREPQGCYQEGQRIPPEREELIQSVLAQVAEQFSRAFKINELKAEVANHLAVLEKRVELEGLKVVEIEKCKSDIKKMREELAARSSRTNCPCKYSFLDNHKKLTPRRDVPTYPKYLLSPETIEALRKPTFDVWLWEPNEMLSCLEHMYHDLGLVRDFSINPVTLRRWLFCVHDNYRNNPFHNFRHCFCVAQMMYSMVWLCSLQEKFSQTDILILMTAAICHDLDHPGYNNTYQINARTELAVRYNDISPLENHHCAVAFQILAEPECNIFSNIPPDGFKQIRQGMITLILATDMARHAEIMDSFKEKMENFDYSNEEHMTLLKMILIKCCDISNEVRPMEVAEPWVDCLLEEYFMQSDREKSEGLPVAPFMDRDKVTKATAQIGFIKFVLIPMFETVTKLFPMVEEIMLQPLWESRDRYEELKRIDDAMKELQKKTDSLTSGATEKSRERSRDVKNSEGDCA

COc1cc(N2CCNC(=O)C2)ccc1-c1nc2c(C)nn(C3CCCCC3)c(=O)c2[nH]1
IC50 [1]: 18 nM

COc1cc(N)ccc1-c1nc2c(C)nn(C3CCCCC3)c(=O)c2[nH]1
Activity [2]: Toxic
Activity [3]: Toxic
Activity [4]: Non-toxic
Activity [5]: Toxic
Activity [6]: inactive
IC50 [7]: 63 nM
Drug uptake(free) [8]: 6 nM
Drug uptake(free) [9]: 763 nM
Drug uptake(free) [10]: 91 nM
Kp at 0.5 h [11]: 3.43
Kp at 0.5 h [12]: 3.05
concentration at 0.5 h [13]: 135000 ng/g
concentration at 0.5 h [14]: 44200 ng/mL
concentration at 0.5 h [15]: 16000 ng/g
concentration at 0.5 h [16]: 4680 ng/mL
Tmax [17]: 15 min
Tmax [18]: 30 min
AUC [19]: 5020 ng·h/mL
AUC [20]: 168000 ng·h/mL
Cmax [21]: 44200 ng/mL
Cmax [22]: 6350 ng/mL
Drug uptake(free) [23]: 0.2%
Tmax [24]: 15 min
AUC [25]: 792 ng·h/mL
Kp at 0.5 h [26]: 1.69
Cmax [27]: 1480 ng/mL
concentration at 0.5 h [28]: 699 ng/mL
concentration at 0.5 h [29]: 1140 ng/g
remaining at 1 h [30]: 4%
remaining at 1 h [31]: 68%
Ratio IC50 [32]: > 150
remaining at 1 h [33]: 43%
Ratio IC50 [34]: > 200
IC50 [35]: 6550 nM
inhibition [36]: 10%
inhibition [37]: 23%
inhibition [38]: 9%
inhibition [39]: 0%
inhibition [40]: 3%
inhibition [41]: 86%
inhibition [42]: 6%
inhibition [43]: 29%
inhibition [44]: 37%
IC50 [45]: 43 nM
IC50 [1]: 31 nM

COc1cc(N2CC[C@H](N)C2)ccc1-c1nc2c(C)nn(C3CCCCC3)c(=O)c2[nH]1
IC50 [1]: 80 nM

COc1cc(N2CCCC(O)CC2)ccc1-c1nc2c(C)nn(C3CCCCC3)c(=O)c2[nH]1 (configuration not stated)
IC50 [1]: 33 nM

COc1cc(N2CCC(N)CC2)ccc1-c1nc2c(C)nn(C3CCCCCC3)c(=O)c2[nH]1
inhibition [46]: 92%
IC50 [1]: 75 nM

COc1cc(-c2cn[nH]c2)ccc1-c1nc2c(C)nn(C3CCCCC3)c(=O)c2[nH]1
IC50 [1]: 45 nM

COc1cc(N2CCC(N)CC2)ccc1-c1nc2c(C)nn(C3CCN(C)CC3)c(=O)c2[nH]1
inhibition [46]: 7%
